For this assay, the target named is T1, Core-binding factor subunit beta (Homo sapiens, UniProt Q13951).
T1 sequence (Q13951 whole entry): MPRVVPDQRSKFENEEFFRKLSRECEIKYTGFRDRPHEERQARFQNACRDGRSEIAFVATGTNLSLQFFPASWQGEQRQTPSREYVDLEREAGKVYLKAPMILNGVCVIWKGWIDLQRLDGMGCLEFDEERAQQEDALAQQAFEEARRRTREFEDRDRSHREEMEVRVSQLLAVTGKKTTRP
As to the kind of experiment: FRET Assay.
Excerpt: We have developed effective assays to monitor the inhibition of CBFβ-SMMHC binding to the Runt domain (as well as for CBFβ binding to the Runt domain). […] The ratio of the emission intensities at 525 nm and 474 nm, measured after excitation at 433 nm, was used as the readout in this assay.
By IC50 is commonly meant the midpoint of a concentration-inhibition curve. A lower IC50 goes with greater potency in that assay. In turn, `CCOc1cccc2[nH]c(-c3ccccn3)nc12` [US8748618, AI-4-42] returned an IC50 of 4200 nM.

Consider `Fc1cc2[nH]c(-c3ccccn3)nc2c(F)c1F` [US8748618, AI-4-43], for which the IC50 stood at 1400 nM.

`Cc1cccc2[nH]c(-c3ccccn3)nc12` [US8748618, AI-4-46] yielded an IC50 of 5300 nM.

As to `FC(F)(F)c1cc(Cl)c2[nH]c(-c3ccccn3)nc2c1` [US8748618, AI-4-48], the IC50 is 760 nM.

The compound `Clc1cc(Cl)c2nc(-c3ccccn3)[nH]c2c1` [US8748618, AI-4-49] showed an IC50 of 700 nM.

`COc1cccc2[nH]c(-c3ccccn3)nc12` [US8748618, AI-4-52] registered an IC50 of 5500 nM. This IC50 is about 7.9-fold higher than that of the compound before.

`CC(C)Oc1ccc2[nH]c(-c3ccccn3)nc2c1` [US8748618, AI-4-70 (or) LD-2-21] showed an IC50 of 1400 nM.

Regarding `c1ccc(-c2nc3ccc(N4CCOCC4)cc3[nH]2)nc1` [US8748618, AI-10-3], the IC50 was 1000 nM.

Regarding `CS(=O)(=O)c1ccc2nc(-c3ccccn3)[nH]c2c1` [US8748618, AI-10-37], the IC50 came out at 3300 nM.

Take `FC(F)(F)Oc1ccc2[nH]c(-c3ccccn3)nc2c1` [US8748618, AI-10-47]: the IC50 is 1000 nM.

The compound `Oc1ccc2nc(-c3ccccn3)[nH]c2c1` [US8748618, AI-10-61] came in with an IC50 of 2500 nM.

`Fc1cccnc1-c1nc2ccc(OC(F)(F)F)cc2[nH]1` [US8748618, AI-10-65] yielded an IC50 of 22000 nM.

As for `COCCOc1ccc(-c2nc3ccc(OC(F)(F)F)cc3[nH]2)nc1` [US8748618, AI-10-87], the IC50 is 2300 nM.

Regarding `c1ccc(-c2nc3cc(-n4ccnc4)ccc3[nH]2)nc1` [US8748618, AI-10-88], the IC50 was found to be 3400 nM.

Compound `Cc1ccc2[nH]c(-c3ccccn3)nc2c1C` [US8748618, LD-1-23] gave an IC50 of 4300 nM.

In the case of `CCOc1ccc2[nH]c(-c3ccccn3)nc2c1` [US8748618, LD-1-29 (or) AI-10-54], the IC50 came to 1500 nM. Compared with the last compound, the IC50 is about 2.9-fold lower.

In turn, `Fc1ccc2[nH]c(-c3ccccn3)nc2c1` [US8748618, LD-1-31] displayed an IC50 of 2500 nM. This IC50 lies about 1.7-fold higher than the previous one.

`Fc1cc2nc(-c3ccccn3)[nH]c2cc1F` [US8748618, LD-1-33]: the IC50 worked out at 2500 nM.

In turn, `Cc1cc2nc(-c3ccccn3)[nH]c2cc1C` [US8748618, LD-1-37] showed an IC50 of 2000 nM.

Regarding `Cc1ccc2[nH]c(-c3ccccn3)nc2c1` [US8748618, LD-2-11], the IC50 came to 2900 nM.

`FC(F)(F)c1ccc2[nH]c(-c3ccccn3)nc2c1` [US8748618, LD-2-23] had an IC50 of 1100 nM.

For the compound `Clc1ccc2nc(-c3ccccn3)[nH]c2c1` [US8748618, LD-2-79], the IC50 was determined as 2300 nM.

The values are drawn from BindingDB's records for patent US8748618 (University of Virginia Patent Foundation, 2014).
